According to ChEMBL document CHEMBL1201862, “PubChem BioAssay data set” (2004):
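How tested: cells in 96-well plates exposed to compound for 48 hours at five concentrations. Here, GI50 denotes the concentration required for 50% inhibition of growth.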 Active and inactive are the calls of the source. No stated cut-off is given here; in the data, active = GI50 up to about 1.1 µM and inactive = higher.

Legend:
Experiment in all cases: inhibition of tumour cell growth, NCI panel, 48 h
A549 = tested on: A549
HCC 2998 = tested on: HCC 2998
HL-60 = tested on: HL-60
HOP-62 = tested on: HOP-62
HT-29 = tested on: HT-29
IGROV-1 = tested on: IGROV-1
K562 = tested on: K562
LOX IMVI = tested on: LOX IMVI
MOLT-4 = tested on: MOLT-4
NCI-H522 = tested on: NCI-H522
OVCAR-3 = tested on: OVCAR-3
OVCAR-4 = tested on: OVCAR-4
SK-MEL-28 = tested on: SK-MEL-28
SK-OV-3 = tested on: SK-OV-3
SNB-19 = tested on: SNB-19
SNB-75 = tested on: SNB-75
SW-620 = tested on: SW-620
U-251 = tested on: U-251

Measured: GI50

O=C1C=C(Nc2ccc(Cl)cc2C(=O)c2ccccc2)c2ccccc2C1=O
inactive: A549 > 100 µM | HCC 2998 > 100 µM | HL-60 > 100 µM | HOP-62 > 100 µM | HT-29 > 100 µM | IGROV-1 > 100 µM | K562 > 100 µM | LOX IMVI > 100 µM | MOLT-4 > 100 µM | NCI-H522 > 100 µM | OVCAR-3 > 100 µM | OVCAR-4 > 100 µM | SK-MEL-28 > 100 µM | SK-OV-3 > 100 µM | SNB-19 > 100 µM | SNB-75 > 100 µM | SW-620 > 100 µM | U-251 > 100 µM

O=C(CCC(=O)Nc1cccc(Cl)c1)CC(=O)c1ccc(Cl)cc1
inactive: A549 > 100 µM | HCC 2998 > 100 µM | HL-60 > 100 µM | HOP-62 > 100 µM | HT-29 > 100 µM | IGROV-1 > 100 µM | K562 > 100 µM | LOX IMVI > 100 µM | MOLT-4 > 100 µM | NCI-H522 > 100 µM | OVCAR-3 > 100 µM | OVCAR-4 > 100 µM | SK-MEL-28 > 100 µM | SK-OV-3 > 100 µM | SNB-19 > 100 µM | SNB-75 > 100 µM | SW-620 > 100 µM

COc1ccc(C2COc3c(ccc(OC)c3OC)C2=O)cc1OC (centres undefined)
inactive: A549 > 100 µM | HCC 2998 > 100 µM | HL-60 > 100 µM | HOP-62 > 100 µM | HT-29 > 100 µM | IGROV-1 > 100 µM | K562 > 100 µM | LOX IMVI > 100 µM | MOLT-4 > 100 µM | NCI-H522 > 100 µM | OVCAR-3 > 100 µM | OVCAR-4 > 100 µM | SK-MEL-28 > 100 µM | SK-OV-3 > 100 µM | SNB-19 > 100 µM | SNB-75 > 100 µM | SW-620 > 100 µM | U-251 > 100 µM

O=C1CC2CC=C[C@H]3c4cc5c(cc4C(=O)N1C23)OCO5 (some centres undefined)
inactive: A549 > 50 µM | HCC 2998 > 50 µM | HL-60 > 50 µM | HOP-62 > 50 µM | HT-29 > 50 µM | IGROV-1 > 50 µM | K562 > 50 µM | LOX IMVI > 50 µM | MOLT-4 > 50 µM | NCI-H522 > 50 µM | OVCAR-3 > 50 µM | SK-MEL-28 > 50 µM | SK-OV-3 > 50 µM | SNB-19 > 50 µM | SNB-75 > 50 µM | SW-620 > 50 µM | U-251 > 50 µM

O=C(N/N=C/c1cc(Cl)cc(Cl)c1O)c1ccncc1
inactive: A549 > 100 µM | HCC 2998 > 100 µM | HL-60 26.4 µM | HOP-62 53.2 µM | HT-29 > 10 µM | IGROV-1 63.5 µM | K562 > 100 µM | LOX IMVI > 100 µM | MOLT-4 36.9 µM | NCI-H522 > 100 µM | OVCAR-3 32.2 µM | SK-MEL-28 > 100 µM | SK-OV-3 > 100 µM | SNB-19 > 100 µM | SNB-75 > 100 µM | SW-620 > 100 µM | U-251 92.3 µM

CC1OC(CC(=O)O)Cc2c(O)c3c(c(O)c21)C(=O)C=C(C1=CC(=O)c2c(O)c4c(c(O)c2C1=O)CC(CC(=O)O)OC4C)C3=O (centres undefined)
inactive: A549 45.1 µM | HCC 2998 46.3 µM | HL-60 3.03 µM | HOP-62 > 100 µM | HT-29 18.5 µM | IGROV-1 30.7 µM | K562 9.4 µM | LOX IMVI 16.5 µM | MOLT-4 2.69 µM | NCI-H522 6.25 µM | OVCAR-3 27 µM | OVCAR-4 17.3 µM | SK-MEL-28 14.7 µM | SK-OV-3 > 100 µM | SNB-19 > 100 µM | SNB-75 59.6 µM | SW-620 7.4 µM | U-251 26.1 µM

Cc1cccc(NC(=O)C(=O)Cc2nc3ccccc3nc2O)c1C
inactive: A549 > 100 µM | HCC 2998 > 100 µM | HL-60 > 100 µM | HOP-62 > 100 µM | HT-29 > 100 µM | IGROV-1 > 100 µM | K562 > 100 µM | LOX IMVI > 100 µM | NCI-H522 > 100 µM | OVCAR-3 > 100 µM | OVCAR-4 > 100 µM | SK-MEL-28 > 100 µM | SK-OV-3 > 100 µM | SNB-19 > 100 µM | SNB-75 84.9 µM | SW-620 > 100 µM | U-251 > 100 µM

COc1ccc(C2CC(C)=Nc3c(O)nc(S)nc3N2)cc1 (centres undefined)
inactive: A549 16.9 µM | HCC 2998 16.7 µM | HL-60 17.7 µM | HOP-62 25.4 µM | HT-29 28.5 µM | IGROV-1 18.8 µM | K562 16.6 µM | LOX IMVI 17.4 µM | MOLT-4 23.1 µM | NCI-H522 16.3 µM | OVCAR-3 22.4 µM | SK-MEL-28 27 µM | SK-OV-3 18.1 µM | SNB-19 18.7 µM | SNB-75 17.6 µM | SW-620 5.27 µM | U-251 17.3 µM
